Assay results reported in patent US20210230159A1, “4H-PYRIDO[1,2-A]PYRIMIDIN-4-ONE COMPOUNDS” (Prana Biotechnology Limited, priority 2014, published 2021).

Test: Hydrogen peroxide (H2O2) inhibition assay (fluorescence, DCF/horseradish peroxidase)
Type: biochemical
Conditions: for IC50: HCl salt tested where HCl salt MW is given; for Fe-ASC % (cf. 0.4 uM Fe/Asc; cf. CQ, CQ = 100%) / Cu % ASC (cf. CQ = 100%) / Zn % ASC (cf. CQ = 100%): ascorbic acid as reducing substrate; for Fe-ASC % (cf. 0.4 uM Fe/Asc; cf. CQ, CQ = 100%) / Fe-DA % (cf. 0.4 uM Fe/DA; cf. CQ, CQ = 100%): test compound 0.4 μM, lower values = greater inhibition of H2O2; for Fe-DA % (cf. 0.4 uM Fe/DA; cf. CQ, CQ = 100%): dopamine as reducing substrate
Method: Assay 1. Hydrogen Peroxide Assay
H2O2 is a strong oxidizer and a highly reactive oxygen species that is known to be toxic to surrounding proteins and organelles, inhibiting their function. […] […] H2O2 generated by the system is assessed by measuring the specific fluorescence profile at the excitation and emission wavelengths of 485 and 530 nm respectively, in the presence of test compound. Test compounds were dissolved in DMSO and tested at concentrations of 0.4 μM. Test compounds are ranked according to their capacity to inhibit H2O2 generated by the system where lower values reflect greater ability to inhibit H2O2 production.

Compound | IC50 | Fe-ASC % (cf. 0.4 uM Fe/Asc; cf. CQ, CQ = 100%) | Fe-DA % (cf. 0.4 uM Fe/DA; cf. CQ, CQ = 100%) | Cu % ASC (cf. CQ = 100%) | Zn % ASC (cf. CQ = 100%)
Cc1ccc(O)c2nc(CNCc3ccc(F)cc3)cc(=O)n12 [Compound 1467] | 440 nM | 74% ASC | 42% | – | –
COCc1cnc2c(O)cccn2c1=O [Compound 1398, 9-Hydroxy-3-(methoxymethyl)-4H-pyrido[1,2-a]pyrimidin-4-one] | 1290 nM | 39% ASC | – | – | –
O=c1cc(CNC2CCCC2)nc2c(O)cccn12 [Compound 1435] | 230 nM | 133% ASC | 90% | – | –
O=C(NCc1ccncc1)c1cnc2c(O)cccn2c1=O [Compound 1450] | 380 nM | 126% ASC | 55% | – | –
O=C(c1cnc2c(O)cccn2c1=O)N1CCCC1 [Compound 1532] | 900 nM | – | – | – | –
O=C(NCC1CC1)c1cnc2c(O)cccn2c1=O [Compound 1428] | 430 nM | – | 75% | Cu 212% ASC | Zn 74% ASC
CCCc1cnc2c(O)c(Cl)ccn2c1=O [Compound 1235] | 290 nM | 86% ASC | – | – | –
O=C(NCc1ccc(F)c(F)c1)c1cnc2c(O)cccn2c1=O [Compound 1454] | 1000 nM | 65% ASC | 46% | – | –
CCCCCNC(=O)c1cnc2c(O)cccn2c1=O [Compound 1422] | 680 nM | 63% ASC | – | – | –
O=C(NCc1cccnc1)c1cnc2c(O)cccn2c1=O [Compound 1446] | 340 nM | 218% ASC | 56% | – | –
CN(Cc1cc(=O)n2cccc(O)c2n1)C1CCCCC1 [Compound 1521] | > 10000 nM | 123% ASC | 50% | – | –
Cc1ccc(O)c2nc(CN(C)Cc3ccc(F)cc3)cc(=O)n12 [Compound 1500] | 360 nM | 171% ASC | 42% | – | –
CN(Cc1cc(=O)n2cccc(O)c2n1)Cc1ccccc1F [Compound 1516] | 300 nM | 102% ASC | 52% | – | –
O=c1cc(CNCc2ccc(C(F)(F)F)cc2)nc2c(O)cccn12 [Compound 1455] | 350 nM | 82% ASC | 47% | – | –
CCCCCNCc1cc(=O)n2cccc(O)c2n1 [Compound 1413] | 190 nM | 42% ASC | – | – | –
O=c1cc(CNCCN2CCCC2)nc2c(O)cccn12 [Compound 1417] | 130 nM | 29% ASC | – | – | –
CN(Cc1cccc(F)c1)Cc1cc(=O)n2cccc(O)c2n1 [Compound 1517] | 350 nM | 105% ASC | 55% | – | –
CCCc1cnc2c(O)c(-c3c(C)noc3C)c(Cl)cn2c1=O [Compound 1630] | – | – | – | Cu 213% ASC | Zn 129% ASC
CCCCN(C)Cc1cc(=O)n2cccc(O)c2n1 [Compound 1485] | 530 nM | 159% ASC | 57% | – | –
Cc1cccc(NCc2cc(=O)n3c(C)ccc(O)c3n2)n1 [Compound 1531] | 1480 nM | – | – | – | –
O=C(NCc1ccc2c(c1)OCO2)c1cnc2c(O)cccn2c1=O [Compound 1432] | 410 nM | 65% ASC | 66% | – | –
O=c1cc(CNCc2ccccc2)nc2c(O)cccn12 [Compound 1442] | 240 nM | 128% ASC | 58% | – | –
CC(C)c1cnc2c(O)c(-c3cnn(C)c3)ccn2c1=O [Compound 1633] | – | – | – | Cu 17% ASC | Zn 140% ASC

Compound | IC50 | Fe-ASC % (cf. 0.4 uM Fe/Asc; cf. CQ, CQ = 100%) | Fe-DA % (cf. 0.4 uM Fe/DA; cf. CQ, CQ = 100%) | Cu % ASC (cf. CQ = 100%) | Zn % ASC (cf. CQ = 100%)
Cc1ccc(CNCc2cc(=O)n3cccc(O)c3n2)cc1 [Compound 1478] | 3120 nM | 198% ASC | 75% | – | –
CC(C)CNC(=O)c1cnc2c(O)cccn2c1=O [Compound 1425] | 340 nM | – | 76% | Cu 212% ASC | Zn 69% ASC
CCN1CCN(Cc2cc(=O)n3cccc(O)c3n2)CC1 [Compound 1402] | 1680 nM | 36% ASC | – | – | –
Cc1ccc(O)c2nc(CNCCc3ccccn3)cc(=O)n12 [Compound 1504] | 310 nM | 160% ASC | 33% | – | –
O=c1cc(CNCc2ccc(F)cc2)nc2c(O)cccn12 [Compound 1409] | 140 nM | – | – | – | –
CCNCc1cc(=O)n2cccc(O)c2n1 [Compound 1400] | 330 nM | 32% ASC | – | – | –
O=c1cc(CNc2ccc(F)cc2F)nc2c(O)cccn12 [Compound 1444] | 350 nM | 105% ASC | 53% | – | –
CCNC(=O)c1cnc2c(O)cccn2c1=O [Compound 1433] | 390 nM | 152% ASC | 73% | – | –
Cc1ccc(O)c2nc(CN(C)Cc3ccccc3F)cc(=O)n12 [Compound 1527] | 330 nM | 133% ASC | 64% | – | –
CN(C)Cc1cc(=O)n2cccc(O)c2n1 [Compound 1401] | 420 nM | 55% ASC | – | – | –
COc1ccc(CNCc2cc(=O)n3cccc(O)c3n2)cc1OC [Compound 1463] | 590 nM | 158% ASC | 73% | – | –
O=c1cc(CN2CCCCC2)nc2c(O)cccn12 [Compound 1403] | 1700 nM | 49% ASC | – | – | –
O=C(c1cnc2c(O)cccn2c1=O)N1CCCCC1 [Compound 1533] | 1190 nM | – | – | – | –
Cc1ccc(O)c2nc(CN3CCC(C)CC3)cc(=O)n12 [Compound 1508] | 170 nM | 148% ASC | 32% | – | –
O=c1cc(CN2CCN(Cc3ccccc3F)CC2)nc2c(O)cccn12 [Compound 1515] | 1000 nM | 103% ASC | 54% | – | –
CCN(CC)Cc1cc(=O)n2c(C)ccc(O)c2n1 [Compound 1490] | 400 nM | 178% ASC | 55% | – | –
O=C(NCc1ccc(C(F)(F)F)cc1)c1cnc2c(O)cccn2c1=O [Compound 1453] | 340 nM | 79% ASC | 59% | – | –
O=C(NCc1ccccn1)c1cnc2c(O)cccn2c1=O [Compound 1447] | 240 nM | 112% ASC | 52% | – | –
CCN(CC)Cc1cc(=O)n2cccc(O)c2n1 [Compound 1439] | > 10000 nM | 156% ASC | 68% | – | –
O=c1cc(CNCc2ccccn2)nc2c(O)cccn12 [Compound 1414] | < 100 nM | 29% ASC | – | – | –
CCCNC(=O)c1cnc2c(O)cccn2c1=O [Compound 1423] | 380 nM | 45% ASC | – | – | –
CN(Cc1cccc(Cl)c1)Cc1cc(=O)n2cccc(O)c2n1 [Compound 1518] | 580 nM | 84% ASC | 49% | – | –
O=C(NCCN1CCCC1)c1cnc2c(O)cccn2c1=O [Compound 1426] | 320 nM | – | 62% | Cu 212% ASC | Zn 121% ASC
